Converted amounts (≈) assume the structure as drawn.
Assays:
SMMC-7721 [1] = test: Cytotoxicity against human SMMC-7721 cells assessed as reduction in cell viability by SRB assay; format: functional, cell-based
Hep 3B2 = test: Cytotoxicity against human Hep3B cells assessed as cell growth inhibition by MTT colorimetric assay; format: functional, cell-based
HepG2 [2] = test: Cytotoxicity against human HepG2 cells assessed as reduction in cell viability by MTT assay; format: functional
[3] = system: Trichophyton mentagrophytes; test: Antifungal activity against Trichophyton mentagrophytes assessed as inhibition of microbial growth; format: functional
Nannizzia gypsea = test: Antifungal activity against Microsporum gypseum assessed as fungal growth inhibition; format: functional
Arthrodermataceae = test: Antibacterial activity against Arthrodermataceae; format: functional
Leishmania donovani = test: Antileishmanial activity against Leishmania donovani assessed as parasite growth inhibition; format: functional, organism-based
[4] = Antioxidant activity assessed as DPPH radical scavenging activity; format: functional
SMMC-7721 [5] = test: Cytotoxicity against human SMMC-7721 cells assessed as reduction in cell viability; format: functional, cell-based
A549 [6] = test: Cytotoxicity against human A549 cells assessed as reduction in cell viability by MTS assay; format: functional, cell-based
HepG2 [7] = test: Cytotoxicity against human HepG2 cells by MTT assay; format: functional, cell-based
Acinetobacter baumannii = test: Antibacterial activity against Acinetobacter baumannii assessed as reduction in bacterial growth by broth microdilution method; format: functional
Staphylococcus aureus [8] = test: Antibacterial activity against Staphylococcus aureus […] assessed as reduction in microbial growth; format: functional
Staphylococcus aureus [9] = test: Antibacterial activity against methicillin-resistant Staphylococcus aureus assessed as reduction in microbial growth; format: functional
Escherichia coli = test: Antibacterial activity against Escherichia coli assessed as reduction in bacterial growth by broth microdilution method; format: functional
Enterococcus faecalis = test: Antibacterial activity against Enterococcus faecalis assessed as reduction in bacterial growth; format: functional
Staphylococcus aureus [10] = test: Antibacterial activity against Staphylococcus aureus ATCC 29213 assessed as reduction in microbial growth; format: functional
A549 [11] = test: Antiproliferative activity against human A549 cells assessed as reduction in cell viability incubated for 48 hrs by MTT assay; format: functional, cell-based; settings: A549, 48 h
HeLa [12] = test: Antiproliferative activity against human HeLa cells assessed as reduction in cell growth; format: functional, cell-based
K562 = test: Antiproliferative activity against human K562 cells assessed as cell growth inhibition by MTT assay; format: functional, cell-based
A549 [13] = test: Antiproliferative activity against human A549 cells assessed as reduction in cell growth incubated for 72 hrs by MTT assay; format: functional, cell-based; settings: A549, 72 h
MCF7 [14] = test: Antiproliferative activity against human MCF7 cells assessed as reduction in cell viability incubated for 120 hrs by MTT assay; format: functional, cell-based; settings: MCF7, 120 h
Caco-2 = test: Antiproliferative activity against human Caco-2 cells incubated for 96 hrs by MTT assay; format: functional, cell-based; settings: Caco-2, 96 h
[15] = system: Trichophyton mentagrophytes; test: Antifungal activity against Trichophyton mentagrophytes assessed as inhibition of fungal growth incubated for 48 hrs by serial plate dilution method; format: functional
HeLa [16] = test: Cytotoxicity against human HeLa cells assessed as reduction in cell viability incubated for 48 hrs by MTT assay; format: functional, cell-based
PC-3 = test: Antiproliferative activity against human PC-3 cells assessed as reduction in cell growth measured after 24 hrs by MTT assay; format: functional, cell-based; settings: PC-3, 24 h
HeLa [17] = test: Antiproliferative activity against human HeLa cells assessed as inhibition of cell growth incubated for 72 hrs by MTT assay; format: functional, cell-based
Toxoplasma gondii [18] = test: Antiparasitic activity against Toxoplasma gondii tachyzoites infected in human HeLa cells; format: functional, organism-based; settings: Toxoplasma gondii, HeLa
[19] = Inhibition of hyaluronidase (unknown origin); design: species or system Homo sapiens
Acetylcholinesterase = Acetylcholinesterase (Homo sapiens, UniProt P22303); test: Inhibition of Acetylcholinesterase (unknown origin)
Acetylcholinesterase, sequence (P22303 whole entry): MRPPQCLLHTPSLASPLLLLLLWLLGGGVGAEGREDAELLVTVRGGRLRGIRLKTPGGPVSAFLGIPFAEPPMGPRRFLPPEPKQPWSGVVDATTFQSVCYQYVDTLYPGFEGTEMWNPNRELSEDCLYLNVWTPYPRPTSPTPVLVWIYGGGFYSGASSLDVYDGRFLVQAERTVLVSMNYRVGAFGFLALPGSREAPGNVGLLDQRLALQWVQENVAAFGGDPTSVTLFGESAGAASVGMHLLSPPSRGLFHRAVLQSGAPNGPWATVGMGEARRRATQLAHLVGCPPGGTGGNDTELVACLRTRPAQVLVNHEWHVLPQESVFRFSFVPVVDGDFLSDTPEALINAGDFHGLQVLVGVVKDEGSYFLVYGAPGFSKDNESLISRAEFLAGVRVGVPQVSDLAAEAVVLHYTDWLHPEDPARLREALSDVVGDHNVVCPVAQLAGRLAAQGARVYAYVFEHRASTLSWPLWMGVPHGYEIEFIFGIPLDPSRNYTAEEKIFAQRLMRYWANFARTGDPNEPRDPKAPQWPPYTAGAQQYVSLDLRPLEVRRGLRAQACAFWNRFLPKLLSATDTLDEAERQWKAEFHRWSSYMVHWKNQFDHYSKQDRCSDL

[20] = system: Mycobacterium tuberculosis; test: Antimycobacterial activity against Mycobacterium tuberculosis H37Rv assessed as reduction in bacterial cell growth; format: functional
HeLa [21] = test: Cytotoxicity against human HeLa cells assessed as cell growth inhibition incubated for 24 hrs by MTT assay; format: functional, cell-based
MCF7 [22] = test: Antiproliferative activity against human MCF7 cells assessed as inhibition of cell growth by CCK8 assay; format: functional, cell-based
HepG2 [23] = test: Antiproliferative activity against human HepG2 cells assessed as reduction in cell viability incubated for 48 hrs by MTT assay; format: functional, cell-based; settings: HepG2, 48 h
A549 [24] = test: Antiproliferative activity against human A549 cells assessed as reduction in cell viability by MTT assay; format: functional, cell-based
MCF7 [25] = test: Cytotoxicity against human MCF7 cells assessed as reduction in cell viability after 48 hrs by SRB assay; format: functional, cell-based; settings: MCF7, 48 h
Toxoplasma gondii [26] = test: Antiparasitic activity against Toxoplasma gondii tachyzoites infected in human HeLa cells measured after 24 hrs by MTT assay; format: functional, organism-based

## CCOC(=O)c1ccc2c(c1)c1c(n2CCN2CCNCC2)-c2cc(C(C)C)ccc2[C@@]2(C)CCC[C@@](C)(C(=O)OC)[C@H]12
SMMC-7721 [1]
  IC50: < 1.39 µM
Hep 3B2
  IC50: < 0.73 µM
HepG2 [2]
  IC50: 0.51 µM

## COc1ccc(/C=C/C(=O)c2cn(C)c3ccccc23)cc1
[3]
  MIC: 8 µg/mL
Nannizzia gypsea
  MIC: 1 µg/mL (≈ 3.43 µM)
Arthrodermataceae
  MIC: 4 µg/mL (≈ 13.7 µM)

## O=C(CCC(c1ccccc1)c1c[nH]c2ccccc12)c1c(O)c2ccccc2oc1=O (configuration not stated)
Leishmania donovani
  IC50: 95.5 µg/mL (≈ 226 µM)
[4]
  IC50: 12.4 µM

## Cc1ccc2[nH]c3c(c2c1)C[C@]1(C)[C@H]2CC=C4[C@@H]5[C@@H](C)[C@H](C)CC[C@]5(C(=O)NCCCN(C)C)CC[C@@]4(C)[C@]2(C)CC[C@H]1C3(C)C
SMMC-7721 [5]
  IC50: 1.08 µM

## O=C(CCC(c1c(Cl)cccc1Cl)c1c[nH]c2ccccc12)c1c(O)c2ccccc2oc1=O (configuration not stated)
Leishmania donovani
  IC50: 95 µg/mL (≈ 193 µM)
[4]
  IC50: 13.5 µM

## CC(C)=CCC[C@](C)(O)[C@H]1CC[C@@](C)([C@H]2CC[C@H]3[C@H]2CC[C@H]2C(C)(C)c4[nH]c5ccc(Br)cc5c4C[C@]32C)O1
A549 [6]
  IC50: 13.4 µM

## COc1ccc(C(=O)/C=C/c2ccc3c(ccn3C)c2)c2c1C=CC(C)(C)O2
HepG2 [7]
  IC50: 0.82 µM

## Cc1cc(=O)oc2cc(/N=C3/S/C(=C\c4c[nH]c5ccccc45)C(=O)N3CCO)ccc12
Acinetobacter baumannii
  MIC: 0.25 µg/mL (≈ 0.561 µM)
Staphylococcus aureus [8]
  MIC: 0.25 µg/mL
Staphylococcus aureus [9]
  MIC: 0.25 µg/mL
Escherichia coli
  MIC: 0.25 µg/mL (≈ 0.561 µM)
Enterococcus faecalis
  MIC: 0.25 µg/mL (≈ 0.561 µM)
Staphylococcus aureus [10]
  MIC: 0.25 µg/mL

## COc1cc([C@@H]2c3cc4c(cc3[C@@H](O[C@@H]3O[C@@H]5CO[C@@H](C)O[C@H]5[C@H](O)[C@H]3O)[C@H]3COC(=O)[C@H]23)OCO4)cc(OC)c1O [ETOPOSIDE]
A549 [11]
  IC50: 2.27 µM
HeLa [12]
  IC50: 2.56 µM
K562
  IC50: 1.72 µM
A549 [13]
  IC50: 9.9 µM
MCF7 [14]
  IC50: 2.56 µM

## COc1cc(/C=C/C(=O)/C=C/c2c[nH]c3ccccc23)ccc1O
Caco-2
  IC50: 8 µM

## COc1cc(/C=C/C(=O)c2c[nH]c3ccccc23)cc(Br)c1OC
[15]
  MIC: 32 µg/mL (≈ 82.8 µM)
[3]
  MIC: 16 µg/mL
Nannizzia gypsea
  MIC: 1 µg/mL (≈ 2.59 µM)

## COc1ccc(/C=C/C(=O)/C=C/c2c[nH]c3ccccc23)c(OC)c1OC
HeLa [16]
  IC50: 3.31 µM
PC-3
  IC50: 3.15 µM

## CCOc1c(Br)cc(/C=C/C(=O)c2cc3ccccc3n2C)cc1OC
A549 [13]
  IC50: 4.3 µM

## COc1cc(C(=O)/C=C/c2c[nH]c3ccccc23)cc([Se]C)c1OC
HeLa [17]
  IC50: 0.059 µM
Toxoplasma gondii [18]
  IC50: 0.023 µM

## CC1(C)CC[C@]2(C(=O)O)CC[C@]3(C)C(=CC[C@@H]4[C@@]5(C)Cc6c([nH]c7c(F)cc(F)cc67)C(C)(C)[C@@H]5CC[C@]43C)[C@@H]2C1
[19]
  IC50: 9.97 µM

## O=C1Cc2cc(OCc3ccc(F)cc3)ccc2C=C1C(=O)NCCc1c[nH]c2ccccc12
Acetylcholinesterase
  IC50: 0.16 µM

## O=C(c1ccncc1)n1nc(-c2c[nH]c3ccccc23)cc1-c1cc2ccccc2oc1=O
[20]
  MIC: 2.02 µM (≈ 0.874 µg/mL)

## C[C@]12CC[C@H]3[C@]4(C=C[C@]5(C[C@@H](O)CC[C@]35C)OO4)[C@@H]1CC/C2=N\N=C1/C(=O)Nc2ccc(Cl)cc21
HeLa [21]
  IC50: 5.69 µM
MCF7 [22]
  IC50: 9.05 µM
HepG2 [23]
  IC50: 7.97 µM

## C[C@@H]1CC[C@H]2[C@@H](C)C(OC(=O)c3cc4cc(Cl)ccc4[nH]3)O[C@@H]3O[C@@]4(C)CC[C@@H]1[C@]32OO4 (some centres not stated)
A549 [24]
  IC50: 6.17 µM
MCF7 [25]
  IC50: 5.25 µM
Toxoplasma gondii [26]
  IC50: 85.3 µM
